{"source": "patent US20250025465A1", "about": "“WT-IDH1 INHIBITION USING A COVALENT AND BRAIN-PENETRANT SMALL MOLECULAR INHIBITOR FOR FERROPTOSIS INDUCTION IN HIGH-GRADE GLIOMA” (Northwestern University, priority 2021, published 2025)", "key": {"[1]": {"test": "H&E staining of normal brain from PDX mice treated with RT+13i", "type": "in vivo", "details": "H&E of tumor-adjacent normal cortex, hippocampus and cerebellum", "excerpt": "(§1) (A). Treatment schedule. (B). […]. (C). Kaplan-Meyer survival benefit analysis. (D) H&E stainings of normal brain from PDX mice treated with RT+13i. *p<0.05.\n(§2) . Toxicity to normal brain structures was not observed, as indicated by H&E stainings of tumor-adjacent normal cortex, hippocampus and cerebellum (FIG. 12E)."}, "HGG glioma cells": {"test_system": "HGG glioma cells", "test": "SYTOX green staining of glioma cells (plasma membrane rupture, ferroptosis)", "type": "cell-based", "details": "for ferroptosis / plasma membrane rupture (SYTOX green positivity): compared to vehicle control, FIG. 11; for rescue of 13i treatment effect by co-treatment: co-treatment with 13i, SYTOX green, FIG. 11A-C"}, "[2]": {"details": "see Chung et al.; cited from earlier work"}, "wt-IDH1 [3]": {"target": "T1, wt-IDH1 (Homo sapiens, UniProt O75874)", "test": "cellular wt-IDH1 inhibition", "type": "cell-based", "set-up": "endogenous in cells", "excerpt": "(§3) A therapeutic strategy for the pharmacological inhibition of wt-IDH1 has been devised."}, "wt-IDH1 [4]": {"target": "T1, wt-IDH1", "test": "cell-free wt-IDH1 enzyme inhibition", "type": "biochemical", "details": "read-out: EC50, blocks wt-IDH1", "excerpt": "as §3\n(§4) The compound 13i was developed using a high-throughput screen of a proprietary library, which encompasses 750,000 compounds. During the screen, the investigators identified a hit series, centered around compound wt-IDH1i-1, which contained a large cluster of α,β-unsaturated enones^9. As indicated by the wt-IDH1: wt-IDH1i-1 crystal structure, wt-IDH1-1i bound to a fully closed wt-IDH1 enzyme and competed with NADPH for access to the wt-IDH1 active site via formation of a covalent adduct and the […] trapping of H315 located within the NAPDH binding site^9. […] Blastp searches identified wt-IDH2 as the only NADPH-dependent enzyme that contained an NADPH binding site with significant similarity to the NADPH binding pocket found in wt-IDH1. […] Of note, while H315 and D375 are conserved between wt-IDH1 and wt-IDH2, other important amino acids, including those adjacent to D375 that form a lipophilic groove (K374/L383/A378) required for 13i binding are different, and are likely to mediate compound selectivity."}, "recombinant wt-IDH2": {"target": "T2, recombinant wt-IDH2 (Homo sapiens, UniProt P48735)", "T2 sequence (P48735 40-452)": "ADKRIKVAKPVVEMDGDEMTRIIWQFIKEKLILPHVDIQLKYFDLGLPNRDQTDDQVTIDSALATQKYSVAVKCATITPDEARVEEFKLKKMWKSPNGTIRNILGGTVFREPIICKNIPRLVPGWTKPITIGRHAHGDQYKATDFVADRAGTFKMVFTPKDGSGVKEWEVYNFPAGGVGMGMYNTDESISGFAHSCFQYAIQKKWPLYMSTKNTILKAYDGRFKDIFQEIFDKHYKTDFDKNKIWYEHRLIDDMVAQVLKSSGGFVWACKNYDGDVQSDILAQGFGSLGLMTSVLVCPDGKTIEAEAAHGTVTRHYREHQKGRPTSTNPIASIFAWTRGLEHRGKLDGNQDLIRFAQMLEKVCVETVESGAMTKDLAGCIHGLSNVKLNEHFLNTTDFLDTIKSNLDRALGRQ", "test": "NADPH production by recombinant wt-IDH2", "type": "biochemical", "details": "FIG. 6", "excerpt": "FIG. 6. wt-IDH1i-13 is a selective covalent wt-IDH1 inhibitor.\nas §4"}, "HGG PDX": {"test_system": "HGG PDX", "test": "adult HGG PDX model treated with 13i and RT", "type": "in vivo, mice", "details": "for enhancement of RT anti-tumor effect: i.p. administration, RT 2 Gy x 5", "excerpt": "as §1, §2"}, "[5]": {"test_system": "patient-derived HGG cells", "test": "growth and cell death in patient-derived HGG cells", "type": "cell-based", "excerpt": "(§5) As these mt-IDH1-specific inhibitors recognize an allosteric site within the enzyme dimerization domain, many of these compounds show ‘off-target’ effect against wt-IDH1, as elucidated in cell-free enzyme repression assays."}, "[6]": {"test": "in vivo effects of mt-IDH1 inhibitors in HGG", "excerpt": "as §5"}, "wt-IDH1 [7]": {"target": "T1, wt-IDH1", "details": "covalent engagement with the NADPH pocket; from the screen of Jakob et al.; read-out: cell-free EC50; cited from earlier work"}, "U87MG cells": {"test_system": "U87MG cells", "test": "clonogenic growth assay, RT enhancement upon wt-IDH1 knockdown", "type": "cell-based", "details": "incubation with antioxidant precursor, FIG. 5A", "description": "FIG. 5. wt-IDH1 inactivation enhances RT anti-tumor effect (A). RT enhancement ratio, as assessed via clonogenic growth assay in U87MG cells, upon genetic wt-IDH1inactivation, in the presence or absence of the ROS scavenger N-acetyl […] (NAC). (B). wt-IDH1 in doxy-treated xenogafts. (C). Tumor volume in mice subcutaneously implanted with U87MG cells carrying a doxy-inducible shIDH1 were treated with doxy and irradiated with a total of 14 Gy administered in 7 fractions of 2 Gy, and tumor volumes were measured. *p<0.05. (D.) Kaplan-Meyer estimates for tumor tripling, *p<0.005 vs. control; **p<0.001 vs. control, RT and doxy. […] Knockdown of wt-IDH1 decreased HGG cell line NADPH concentrations by 50-60%, and similarly depleted numerous NADPH-dependent metabolites, including the antioxidant glutathione (GSH). […] To determine whether combining RT and wt-IDH1 knockdown had beneficial anti-HGG effects in vivo, we established flank xenografts carrying a doxycycline (doxy)-inducible shRNA directed against wt-IDH1. A flank model was used due to the variable CNS penetrance of doxy. Immunoblotting confirmed that administration of doxy had the intended effects on wt-IDH1 expression in both inducible shIDH1 and shCo xenografts (FIG. 5B)."}}, "note": "Entries after “also recorded” stand apart in the source; their conditions may differ. Like-named read-outs stand apart in the source and are kept apart here."}
{"smiles": "C[C@@H]1C(=O)C(C#N)=C[C@]2(c3ccccc3)c3nc(Nc4ccccc4)ncc3CC[C@@H]12", "note": "[13i, (6aS,7S,10aR)-2-anilino-7-methyl-8-oxo-10a-phenyl-5,6,6a,7-tetrahydrobenzo[h] quinazoline-9-carbonitrile]", "values": [{"measurement": "toxicity to normal brain structures", "setting": "[1]", "result": "not observed"}, {"measurement": "ferroptosis / plasma membrane rupture (SYTOX green positivity)", "setting": "HGG glioma cells", "result": "induced plasma membrane rupture; also recorded: promotes ferroptosis"}, {"measurement": "ferroptosis / plasma membrane rupture (SYTOX green positivity)", "setting": "HGG glioma cells; listed as wt-DIH1i-13", "result": "promotes ferroptosis"}, {"measurement": "brain penetrance", "setting": "[2]", "result": "brain-penetrant"}, {"measurement": "IC50", "setting": "wt-IDH1 [3]", "result": "800 to 1700", "unit": "nM"}, {"measurement": "EC50", "setting": "wt-IDH1 [4]", "result": 14, "unit": "nM"}, {"measurement": "fold higher EC50 against recombinant wt-IDH2 compared to wt-IDH1", "setting": "recombinant wt-IDH2", "result": 100, "unit": "fold"}, {"measurement": "tumor volume / progression (bioluminescence)", "setting": "HGG PDX; i.p. 10 mg/kg M-F, in combination with RT 2 Gy x 5, 10 mg/kg", "result": "highly reduced tumor volume; also recorded: reduces the progression"}, {"measurement": "survival", "setting": "HGG PDX; i.p. 10 mg/kg M-F, in combination with RT 2 Gy x 5, versus vehicle, 10 mg/kg", "result": "increased survival; also recorded: extends the survival"}, {"measurement": "enhancement of RT anti-tumor effect", "setting": "HGG PDX", "result": "enhancement of RT anti-tumor effect"}, {"measurement": "enhancement of RT anti-tumor effect", "setting": "HGG PDX; listed as wt-DIH1i-13", "result": "enhances RT anti-tumor effect in vivo"}]}
{"smiles": "COc1c(C)cc(NC(=O)c2nn(Cc3ccc(F)cc3)c3c2CN(C(=O)c2ccc[nH]2)C[C@]3(C)C(N)=O)cc1C", "note": "[GSK864]", "values": [{"measurement": "drug concentrations sufficient to impact growth and cell death", "setting": "[5]", "result": "in the high micromolar range"}, {"measurement": "in vivo effects", "setting": "[6]", "result": "moderate"}]}
{"smiles": "C[C@@H]1C(=O)C(C#N)=C[C@]2(C)c3nc(Nc4ccccc4)ncc3CC[C@@H]12", "note": "[wt-IDH1i-1, (6aS,7S,10aR)-2-anilino-7,10a-dimethyl-8-oxo-5,6,6a,7-tetrahydrobenzo[h] quinazoline-9-carbonitrile]", "values": [{"measurement": "EC50", "setting": "wt-IDH1 [7]", "result": 49, "unit": "nM"}]}
{"smiles": "CCOC(=O)c1ccc(NC2CCCCC2)c(N)c1", "note": "[ferrostatin, reference compound]", "values": [{"measurement": "rescue of 13i treatment effect by co-treatment", "setting": "HGG glioma cells", "result": "rescued 13i treatment effect"}]}
{"smiles": "CC(=O)N[C@@H](CS)C(=O)O", "note": "[NAC, N-acetyl cysteine, reference compound]", "values": [{"measurement": "rescue of 13i treatment effect by co-treatment", "setting": "HGG glioma cells", "result": "rescued 13i treatment effect"}, {"measurement": "reversal of radiosensitization conferred by wt-IDH1 knockdown", "setting": "U87MG cells", "result": "nearly completely reversed"}]}
